This is an account of results in PubChem BioAssay (NCI).

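Test compounds were applied to cells in 96-well plates for 48 hours at 5 doses. GI50: concentration for 50% inhibition of growth. TGI denotes the concentration required for complete inhibition of growth.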 Some results are limits rather than exact numbers.

Test systems include CAKI-1 renal; TK-10 renal; K-562 leukemia; SF-268 CNS; MALME-3M melanoma; HOP-92 NSCLC; SF-295 CNS; SK-MEL-5 melanoma; CCRF-CEM leukemia; NCI-H23 lung.
Holding throughout (experiment): NCI-60 cell line screen, 48 h

As for `Cc1[nH]nc(C(F)(F)F)c1N=NN1CCOCC1`, the TGI came out at 4.67 µM with CAKI-1 renal; 26.7 µM in the test on TK-10 renal; 2.4 µM in the test with K-562 leukemia; 26.8 µM in the test with SF-268 CNS; 31.3 µM in the test on MALME-3M melanoma; 8.32 µM in the test on HOP-92 NSCLC. Besides, the TGI in the test on SF-295 CNS was 28.1 µM; with SK-MEL-5 melanoma it was 12.8 µM; with CCRF-CEM leukemia, 10.8 µM; with NCI-H23 lung it was 15.5 µM.
Turning to `COc1ccc2cc(/C=N/NC(=O)Nc3ccccc3)ccc2c1`, the TGI in the test on CAKI-1 renal, in the test with TK-10 renal, in the test on K-562 leukemia, with MALME-3M melanoma, in the test with HOP-92 NSCLC and with SF-295 CNS was above 100 µM each time. Besides, the TGI in the test with SK-MEL-5 melanoma, with CCRF-CEM leukemia and in the test on NCI-H23 lung was above 100 µM each time.
On to `O=c1cnn(C/C=C/CO)c(=O)[nH]1`, for which the TGI with CAKI-1 renal, in the test on TK-10 renal, with K-562 leukemia, in the test with SF-268 CNS, with MALME-3M melanoma and in the test with HOP-92 NSCLC was above 100 µM each time. The TGI in the test with SK-MEL-5 melanoma, in the test on CCRF-CEM leukemia and with NCI-H23 lung was above 100 µM throughout.
Turning to `CN(C)CCCN1CCC2(CCC(C(C)(C)C)CC2)CC1`, the TGI with CAKI-1 renal was 7.55 µM; in the test on TK-10 renal it was 3.34 µM; in the test on K-562 leukemia, 0.962 µM; with SF-268 CNS, 7.29 µM; in the test with MALME-3M melanoma it was 3.4 µM; with HOP-92 NSCLC, 10.1 µM. The TGI in the test on SF-295 CNS was found to be 3.96 µM; with SK-MEL-5 melanoma it was 3.02 µM; in the test on CCRF-CEM leukemia, 4.82 µM; in the test on NCI-H23 lung, 21.7 µM.
Take `CC(OC(C)(C)C)[C@H](NC(=O)OCC(Cl)(Cl)Cl)C(=O)O` (some centres not stated): the TGI in the test with CAKI-1 renal, with TK-10 renal, in the test on K-562 leukemia, in the test with SF-268 CNS, in the test with MALME-3M melanoma and with HOP-92 NSCLC was above 100 µM in each case. Further, the TGI in the test on SF-295 CNS, in the test with SK-MEL-5 melanoma, in the test on CCRF-CEM leukemia and with NCI-H23 lung was above 100 µM in each case.
As to `CCC(/C=C/C1OC(=O)C=CC1C)=C\C(C)C/C=C/C(C)=C/C(C)C(=O)C(C)C(O)C(C)C/C(C)=C/C(=O)O` (configuration not stated), the GI50 in the test with CAKI-1 renal is below 0.001 nM; in the test on K-562 leukemia, below 0.001 nM; with SF-268 CNS, 1.89 µM; in the test with MALME-3M melanoma it was 0.000217 µM; in the test with HOP-92 NSCLC it was 5.32 µM; in the test with SF-295 CNS, 0.0179 nM. In addition, the GI50 was 0.408 µM in the test with SK-MEL-5 melanoma, below 1 pM in the test on CCRF-CEM leukemia and 0.00652 nM with NCI-H23 lung. The TGI worked out at 7.64 µM in the test with SF-268 CNS, 6.29 µM in the test with MALME-3M melanoma, 2.39 µM with SF-295 CNS and 3.87 µM in the test with NCI-H23 lung.
With `S=C(S)NCNC(=S)S.[Zn+2]`, the TGI in the test with CAKI-1 renal, with TK-10 renal, in the test on K-562 leukemia, in the test on SF-268 CNS, in the test with MALME-3M melanoma and in the test with HOP-92 NSCLC was above 100 µM in each case. The TGI in the test on SF-295 CNS, in the test with SK-MEL-5 melanoma, in the test on CCRF-CEM leukemia and in the test with NCI-H23 lung was above 100 µM throughout.
For the molecule `C[C@H](CCC(=O)O)[C@H]1CC[C@H]2[C@@H]3CC[C@@H]4C[C@H](O)CC[C@]4(C)[C@H]3C[C@H](O)[C@]12C`, the TGI in the test with CAKI-1 renal was above 100 µM; with TK-10 renal, above 100 µM; in the test on K-562 leukemia it was above 100 µM; with SF-268 CNS it was above 100 µM; with MALME-3M melanoma it was above 100 µM; in the test on SF-295 CNS, 38.9 µM. Besides, the TGI in the test on SK-MEL-5 melanoma was above 100 µM; in the test on CCRF-CEM leukemia, 63.8 µM; in the test with NCI-H23 lung it was above 100 µM.
On to `CC1(CCOCc2ccccc2)NC(=O)NC1=O` (configuration not stated), for which the TGI with CAKI-1 renal, with TK-10 renal, in the test with K-562 leukemia, in the test on SF-268 CNS, in the test with MALME-3M melanoma and in the test with HOP-92 NSCLC was above 100 µM each time. Moreover, the TGI in the test with SF-295 CNS, with SK-MEL-5 melanoma and in the test on NCI-H23 lung was above 100 µM throughout.
For `O=C(Cn1c[n+](CC(=O)c2ccc(-c3ccccc3)cc2)c2ccccc21)Nc1cccc2cccnc12`, the GI50 is 2180 nM in the test on CAKI-1 renal; 2.01 µM in the test with TK-10 renal; 639 nM in the test on K-562 leukemia; 0.677 µM in the test with HOP-92 NSCLC; 1730 nM with SF-295 CNS; 1.73 µM in the test with SK-MEL-5 melanoma. Further, in the test with NCI-H23 lung, the GI50 is 1520 nM. The TGI with CAKI-1 renal was 6.16 µM; in the test on TK-10 renal, 3.74 µM; with K-562 leukemia, above 100 µM; in the test on HOP-92 NSCLC, 2.18 µM; in the test with SF-295 CNS it was 3.26 µM; with SK-MEL-5 melanoma, 3.11 µM. This molecule also returned a TGI in the test on NCI-H23 lung of 3.02 µM.
For `NCc1ccccc1-c1c2nc(c(-c3ccccc3CN)c3ccc([nH]3)c(-c3ccccc3CN)c3nc(c(-c4ccccc4CN)c4ccc1[nH]4)C=C3)C=C2`, the TGI was 63.1 µM in the test on TK-10 renal; 35.5 µM in the test on K-562 leukemia; above 100 µM in the test with SF-268 CNS; 22.2 µM in the test with HOP-92 NSCLC; 63.7 µM in the test with SK-MEL-5 melanoma; 27.1 µM in the test on CCRF-CEM leukemia. For the same molecule, the TGI with NCI-H23 lung turned out to be 58.4 µM.
As for `Cn1c(=O)c(-c2ccccc2)c(N=[N+]=[N-])c2ccccc21`, the TGI with CAKI-1 renal was above 100 µM; with TK-10 renal it was above 100 µM; with K-562 leukemia, above 100 µM; in the test with SF-268 CNS it was above 100 µM; with MALME-3M melanoma, 87.8 µM; in the test with HOP-92 NSCLC it was above 100 µM. Also, the TGI in the test with SF-295 CNS, with SK-MEL-5 melanoma, in the test with CCRF-CEM leukemia and in the test on NCI-H23 lung was above 100 µM each time.
Regarding `O=C(O)CCC(NC(=O)c1ccc(Nc2nc3cc(C(F)(F)F)ccc3nc2-c2ccccc2)cc1)C(=O)O` (configuration not stated), the TGI in the test with K-562 leukemia, in the test with SF-268 CNS, in the test with MALME-3M melanoma, in the test on HOP-92 NSCLC, in the test on SF-295 CNS and in the test with SK-MEL-5 melanoma was above 100 µM throughout. Besides, the TGI with CCRF-CEM leukemia and in the test with NCI-H23 lung was above 100 µM in each case.
For the molecule `Cn1c(=O)c2c(nc(Cc3ccccc3)n2CC(=O)O)n(C)c1=O`, the TGI in the test on CAKI-1 renal, with TK-10 renal, in the test with SF-268 CNS, in the test with MALME-3M melanoma, with HOP-92 NSCLC and with SF-295 CNS was above 100 µM throughout. The TGI in the test on SK-MEL-5 melanoma, in the test on CCRF-CEM leukemia and in the test with NCI-H23 lung was above 100 µM throughout.
